Measurements: the SangsterLogP compilation

settings: not given

Going from `CCCCC(=O)OC` to `COC(=O)CCCC(=O)OC`, the logP falls from 1.96 to 0.62.

Going from `CS(=O)(=O)ON1C(=O)c2ccc([N+](=O)[O-])cc2C1=O` to `CS(=O)(=O)N1C(=O)c2ccc(N)cc2C1=O`, the logP falls from 1.71 to 0.8.

Compared with `CC1COC(=O)O1` (configuration not stated), `Cc1ccnc(=O)[nH]1` is lower in logP: -0.41 for the first, -1.45 for the second.

Compared with `Cc1c(Cl)ccc(OC(C)C(=O)Nc2ccccc2)c1Cl` (configuration not stated), `O=C(Nc1ccc(Cl)cc1)c1cccnc1` is lower in logP: 4.8 for the first, 2.53 for the second.

Going from `CC(=O)C(C)(C)C` to `CC(C)(C)C(=O)C(C)(C)C`, the logP rises from 1.2 to 3.

First: COC(=O)C(F)(F)F
Second: COC(=O)CC#N
The logP of the first is higher: 0.6 for the first, -0.47 for the second.

Going from `C=CCOC(C)=O` to `CCNC(=O)c1ccoc1`, the logP falls from 0.97 to 0.72.

Compared with `CC(=O)N[C@@H](CC(C)C)C(=O)N[C@@H](CCCNC(=N)N)C(=O)N[C@@H](Cc1ccccc1)C(N)=O`, `CCN(C(=O)SCc1ccccc1)C(C)C(C)C` (configuration not stated) is higher in logP: -0.06 for the first, 4.6 for the second.

`Cn1c(N)nc2ccc(C#N)cc21` and `N#Cc1cccc(F)c1` are within 0.2 log units of each other in logP: 1.29 for the first, 1.47 for the second.

First: CCC(C)Cl (configuration not stated)
Second: CCCCn1cc(C)c(=O)[nH]c1=O
The logP of the first is higher: 2.33 for the first, 0.91 for the second.

Going from `CCOC(=O)C(C(=O)OCC)=C(C(=O)OCC)C(=O)OCC` to `CC(=O)N=c1[nH]c(=O)ccn1C1OC(COC(C)=O)C(OC(C)=O)C1OC(C)=O` (configuration not stated), the logP falls from 2.63 to -0.16.

Compared with `O=[N+]([O-])Nc1ccccn1`, `Cc1cc2ccccc2cn1` is higher in logP: -1.02 for the first, 2.68 for the second.

Compared with `OCCCO`, `O=C(NCCCO)C(F)(F)Cn1ccnc1[N+](=O)[O-]` is higher in logP: -1.04 for the first, -0.64 for the second.

First: Nc1nc2cc(Cl)ccc2[nH]1
Second: O=C1C=CC(=O)C(Cl)=C1
The logP of the first is higher: 1.88 for the first, 0.84 for the second.

Going from `c1ccc(OP2OCCO2)cc1` to `c1ccc(N2CCCC2)cc1`, the logP rises from 1.42 to 3.56.

Compared with `C/C=C\C=C\C`, `CCn1cnc([N+](=O)[O-])n1` is lower in logP: 2.8 for the first, -0.23 for the second.

Compared with `CNC1=C(N2CC2)C(=O)C(NC)=C(N2CC2)C1=O`, `NC(=O)OCCC1=C(N2CC2)C(=O)C(Br)=C(N2CC2)C1=O` is higher in logP: 0.13 for the first, 0.68 for the second.

Going from `NC(=S)N1CCCCC1` to `OC1CCCCCCCCCCC1`, the logP rises from 0.73 to 3.75.

`Cc1ccc(/C=N/O)cc1` and `CC(C(=O)O)c1ccc(N2C(=O)C3CCCCC3C2=O)cc1` (configuration not stated) are within 0.2 log units of each other in logP: 2.4 for the first, 2.37 for the second.

First: CCCCCCn1cc(C)c(=O)[nH]c1=O
Second: COc1ccc(CC#N)cc1OC
The logP of the first is higher: 1.93 for the first, 1.15 for the second.

Compound `O=C(O)COc1cc(F)cc(I)c1` has a logP of 2.42.

same assay, conditions: pH 1.0

Going from `Cn1nnnc1SCC1=C(C(=O)O)N2C(=O)[C@@H](NC(=O)[C@H](O)c3ccccc3)[C@H]2SC1` to `CC(C=CC1=C(C)CCCC1(C)C)=CC=CC(C)=CC(=O)O`, the logD rises from 0.25 to 6.3.

For `N#CCC(=O)O`, the logD was -0.76.

same assay, conditions: pH 2.1

Work on `CCCCCCOc1ccc(S(N)(=O)=O)cc1` yielded a logD of 2.93.

same assay, conditions: pH 3.5

With `CC1=C(C(=O)O)N2C(=O)C(NC(=O)C(O)c3ccccc3)C2SC1` (configuration not stated) the logD was 0.46.

same assay, conditions: pH 4.0

Going from `O=[N+]([O-])c1cc(C(F)(F)F)cc([N+](=O)[O-])c1NN=CC(F)(F)F` to `O=[N+]([O-])c1cc(C(F)(F)F)ccc1NN=C(C(F)(F)F)C(F)(F)F`, the logD rises from 2.8 to 4.8.

same assay, conditions: pH 7.0

Going from `CCCCN(CC)c1c([N+](=O)[O-])cc(C(F)(F)F)cc1[N+](=O)[O-]` to `Nc1nc2c(ncn2[C@@H]2O[C@H](CO)[C@@H](O)[C@@H]2F)c(=O)[nH]1`, the logD falls from 5.29 to -1.18.

`S=c1nc(-c2ccccc2)[nH][nH]1` gave a logD of 1.84.

same assay, conditions: pH 7.1

Work on `CSCCC(NC(C)=O)C(N)=O` (configuration not stated) yielded a logD of -0.6.

same assay, conditions: pH 7.4

Going from `CCOc1cccc2cccnc12` to `Cn1c([N+](=O)[O-])cnc1-c1ccc(N)cc1`, the logD falls from 2.25 to 1.06.

Compared with `Cc1ncc([N+](=O)[O-])n1CC(O)CCl` (configuration not stated), `OC[C@H]1O[C@@H](n2cnc3c2NC=NC[C@H]3O)C[C@@H]1O` is lower in logD: 0.58 for the first, -2.09 for the second.

For `CN1C(=O)CN=C(c2ccccc2)c2cc(C#N)ccc21`, the logD was 1.8.

same assay, conditions: pH 9.0

Work on `NC(=O)c1nc[nH]c1N` yielded a logD of -1.1.

same assay, conditions: pH 13.0

Compared with `COc1c(C(C)C)cc(Cc2cnc(N)nc2N)cc1C(C)C`, `Cc1cc(Cc2cnc(N)nc2N)cc(C(C)C)c1N` is lower in logD: 3.47 for the first, 1.77 for the second.

Going from `CCN(CC)CCN` to `NC(=O)COc1ccccc1Cc1nc(N)cc(N)n1`, the logD falls from 0.21 to -0.34.
